Measurements: patent publication US20250270213A1, “PI3Ka INHIBITORS” (Synnovation Therapeutics, Inc., priority 2022, published 2025)
pIC50: −log10 of the molar value.

Test system: T47D (PIK3CA H1047R) cells
Test: pS473 AKT assay with 2.5% FBS, T47D cells
Type: cell-based
Conditions: Homo sapiens, pSer473 AKT, DMEM with 2.5% FBS, 2 h treatment, read-out: T47D_IC50
In short: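 T47D (PIK3CA H1047R) cells were switched to DMEM with 2.5% FBS and exposed to compounds for 2 h. After paraformaldehyde fixation, pSer473 AKT was detected by in-cell ELISA (rabbit primary, HRP anti-rabbit secondary, chemiluminescence); IC50 values were fitted from the concentration series.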

pIC50, > 6.00:
CCn1ncc2c3c(C(C)Nc4ccc(F)cc4C(=O)O)cc(C)cc3c(=O)n(CC)c21 (stereo not shown) [Compound I-24, 2-((1-(3,4-Diethyl-7-methyl-5-oxo-4,5-dihydro-3H-pyrazolo[3,4-c]isoquinolin-9-yl)ethyl)amino)-5-fluorobenzoic acid]
CCn1c(=O)c2cc(C)cc(C(C)Nc3ccc(Cl)nc3-c3ncn(C)n3)c2c2cnn([C@H]3CCOC3)c21 (stereo partly drawn) [Example 216, 9-(1-((6-chloro-2-(1-methyl-1H-1,2,4-triazol-3-yl)pyridin-3-yl)amino)ethyl)-4-ethyl-7-methyl-3-((S)-tetrahydrofuran-3-yl)-3,4-dihydro-5H-pyrazolo[3,4-c]isoquinolin-5-one]
Cc1cc(C(CO)Nc2ccc(Cl)nc2-c2nnn(C)n2)c2c(c1)c(=O)n1c3c2cnn3CCC1 (stereo not shown) [Compound 332, 10-(1-((6-chloro-2-(2-methyl-2H-tetrazol-5-yl)pyridin-3-yl)amino)-2-hydroxyethyl)-8-methyl-4,5-dihydro-3H,6H-2,2a5a-triazaaceanthrylen-6-one]
Cc1cc(C(C)Nc2ccccc2C(=O)O)c2c(c1)c(=O)n(C)c1nn(CCc3ccccc3)cc21 (stereo not shown) [Compound I-28, 2-((1-(4,7-Dimethyl-5-oxo-2-phenethyl-4,5-dihydro-2/I-pyrazolo[3,4-c]isoquinolin-9-yl)ethyl)amino)benzoic acid]
Cc1cc(C(C)Nc2ccc(Cl)nc2-c2cn[nH]c2)c2c(c1)c(=O)n(C)c1c2cnn1C1CN(C)C1 (stereo not shown) [Compound 84, 9-(1-((6-chloro-2-(1H-pyrazol-4-yl)pyridin-3-yl)amino)ethyl)-4,7-dimethyl-3-(1-methylazetidin-3-yl)-3,4-dihydro-5H-pyrazolo[3,4-c]isoquinolin-5-one]
Cc1cc(C(C)Nc2ccc(Cl)nc2-c2ncn(C)n2)c2c(c1)c(=O)n(C)c1c2cnn1C1CCN(C(=O)[C@@H]2CCCN2C)CC1 (stereo partly drawn) [Example 197, 9-(1-((6-chloro-2-(1-methyl-1H-1,2,4-triazol-3-yl)pyridin-3-yl)amino)ethyl)-4,7-dimethyl-3-(1-(methyl-L-prolyl)piperidin-4-yl)-3,4-dihydro-5H-pyrazolo[3,4-c]isoquinolin-5-one]
Cc1cc(C(C)Nc2ccc(Cl)nc2-c2cnn(C)c2)c2c(c1)c(=O)n(C)c1c2cnn1C1CCCN(CCO)C1 (stereo not shown) [Example 280, 9-[1-[[6-chloro-2-(1-methylpyrazol-4-yl)-3-pyridyl]amino]ethyl]-3-[1-(2-hydroxyethyl)-3-piperidyl]-4,7-dimethyl-pyrazolo[3,4-c]isoquinolin-5-one]
Cc1cc(C(C)Nc2ccc(Cl)nc2-c2nnco2)c2c(c1)c(=O)n(C)c1c2cnn1CCO (stereo not shown) [Example 250, 9-(1-((6-chloro-2-(1,3,4-oxadiazol-2-yl)pyridin-3-yl)amino)ethyl)-3-(2-hydroxyethyl)-4,7-dimethyl-3,4-dihydro-5H-pyrazolo[3,4-c]isoquinolin-5-one]
CCn1ncc2c3c(C(C)Nc4ccc(Cl)nc4-c4cnn(C5CCN(CCC#N)CC5)c4)cc(C)cc3c(=O)n(C)c21 (stereo not shown) [Example 234, 3-(4-(4-(6-chloro-3-((1-(3-ethyl-4,7-dimethyl-5-oxo-4,5-dihydro-3H-pyrazolo[3,4-c]isoquinolin-9-yl)ethyl)amino)pyridin-2-yl)-1H-pyrazol-1-yl)piperidin-1-yl)propanenitrile]
CCOC(=O)N1CCC(c2ncn3c4c(C(C)Nc5ccc(Cl)nc5-c5ncn(C)n5)cc(C)cc4c(=O)n(C)c23)CC1 (stereo not shown) [Compound 133, ethyl 4-(9-(1-((6-chloro-2-(1-methyl-1H-1,2,4-triazol-3-yl)pyridin-3-yl)amino)ethyl)-4,7-dimethyl-5-oxo-4,5-dihydroimidazo[1,5-a]quinazolin-3-yl)piperidine-1-carboxylate]
